# Results published in patent US20150050244A1, “Entomopathogenic Fungi and Uses Thereof” (priority 2008, published 2015).
# “And” between values parts separate entries of the source, which are not always exact repeats. Equal entries are not always repeated.
# System: green pea aphid (Myzus persicae)
# Assay: Aphid mortality on leaf discs, Potters tower, K4B3 extract versus beauvericin
# Format: in vivo
# Protocol: Table 7 below presents mortality observed amongst green pea aphid (Myzus persicae) present on Asian brassica leaf discs. Asian brassica leaf discs were placed on 1% water agar in Petri dishes. […] The sprayed Petri dishes were placed dorsal side down on paper towels to allow surfaces to dry. Five replicates of each treatment were done. Mortality was assessed 48 hours after application.
# [1] = per replicate, 2 mL sprayed, 48 hours, beauvericin solution 50 μg/mL with 2.5 mL millennium oil/L
# [2] = total of replicates, 2 mL sprayed, 48 hours
substance,measurement,setting,value
beauvericin,mortality compared with the water control,"beauvericin alone, Table 7",not significantly different
same,aphid mortality (in words),"beauvericin even at 50,000 μg/L",very low
same,Alive Adult,[1],0 (3×) and 8 and 10
same,Alive Juv.,[1],0 (3×) and 22 and 28
same,Dead Adult,[1],0 (4×) and 1
same,Dead Juv.,[1],0 (3×) and 1 and 3
same,Total Alive Adult,[2],18
same,Total Alive Juv.,[2],50
same,Total Dead Adult,[2],1
same,Total Dead Juv.,[2],4
